Assay results reported in patent publication US12559776B2, “Chemical and biological integrated degradation process for polyethylene terephthalate (PET), for recycling pet” (Korea University Research and Business Foundation, priority 2021, dated 2026).

Columns and labels:
IsPETase^Mut = target: T1, IsPETase^Mut (Piscinibacter sakaiensis, UniProt A0A0K8P6T7, D186H/R280A/S121E); assay: Inhibitory effect of catalysts on IsPETase^Mut enzyme reaction; assay type: biochemical, Ideonella sakaiensis; details: 1 mM; enzyme 2.3 U/L; substrate BHET; 50 mM sodium phosphate buffer (pH 8); 40 °C, 15 minutes
T1 construct: His tag (pET28a vector) (N); made in house; host or cells: E. coli BL21(DE3)
Description: (§1) To confirm whether the metal catalysts used in conventional PET glycolysis and betaine, which is an eco-friendly catalyst selected in this study, can have inhibitory effects on enzymatic hydrolysis, IsPETase^Mut and IsMHETase^Mut enzyme experiments were performed using 1 mM each of betaine, Ca^2+, Co^2+, Cu^2+, Fe^2+, Mg^2+, Mn^2+, Ni^2+, pb^2+, Zn^2+, and Li^+. The experiments were performed under conditions including an enzyme concentration of 2.3 U/L, 2.5 mg each of the substrates BHET and MHET, 50 mM sodium phosphate buffer (pH 8), and a volume of 500 μL. After performing the reaction at 40° C. for 15 minutes, all samples were diluted in methanol and centrifuged at 25,188 g for 10 minutes, followed by analyzing the supernatant through high performance liquid chromatography (HPLC). […] Therefore, the product of PET glycolysis using betaine may be used in enzymatic hydrolysis.

IsMHETase^Mut = target: T2, IsMHETase^Mut (Piscinibacter sakaiensis, UniProt A0A0K8P8E7, W397A); assay: Inhibitory effect of catalysts on IsMHETase^Mut enzyme reaction; assay type: biochemical, Ideonella sakaiensis; details: 1 mM; enzyme 2.3 U/L; substrate MHET; 50 mM sodium phosphate buffer (pH 8); 40 °C, 15 minutes
T2 construct: His tag (pET28a vector) (N); made in house; host or cells: E. coli BL21(DE3)
Description: as §1

[1] = PET glycolysis in EG with catalyst (microwave); details: 190 °C
Description: To establish an economical and efficient PET upcycling process, a chemical PET depolymerization process is required. […] A conventional PET glycolysis method mainly used a heavy metal catalyst. The use of a metal catalyst may have an adverse effect on the biological process of the integrated process and have adverse environmental effects, so glycolysis was performed in a microwave digestion system using betaine instead of a metal catalyst. Specifically, 3.5 to 11.5 g of granular PET and a specific amount of EG were reacted using betaine as a catalyst at 190° C. for 30 to 120 minutes. To maintain the reaction conditions, a microwave digester (Milestone, Shelton, CT) with a thermocouple and magnetic stirrer function was used, and the reaction was performed in a 100 mL reaction vessel for exclusive use of a microwave digester.
To determine the glycolysis effect of betaine, first, the input amount of a substrate was optimized. Glycolysis was performed at 190° C. for 30 minutes by adding 0.5% (catalyst/PET, w/w ratio) betaine to a PET substrate and an EG solvent at a molar ratio (PET:EG) of 1:3, 1:4, 1:5, 1:6, 1:10, or 1:20. Here, the major product BHET and a by-product MHET were produced. The BHET and MHET concentrations were measured by liquid chromatography. As a result, it was confirmed that the highest yield was obtained under a substrate input condition corresponding to a PET:EG molar ratio of 1:5. However, considering the concentration of the final product, it was confirmed that the yield was even higher under the substrate input condition corresponding to the PET:EG molar ratio of 1:4. […] Accordingly, the substrate input condition corresponding to a PET:EG molar ratio of 1:4 was selected, and further conditions were established (Table 2).
To confirm the catalytic effect on the input amount of betaine, betaine corresponding to 0, 0.1, 0.5, 1% (catalyst/PET, w/w ratio) was added, and glycolysis was performed at 190° C. for 30 minutes. As a result, it was confirmed that the condition of adding betaine corresponding to 0.5% (catalyst/PET, w/w ratio) is optimal. Accordingly, this condition was selected, and further conditions were established (Table 2)
Next, to confirm the effect by glycolysis reaction time, the reaction was performed at 190° C. under various reaction time conditions of 30, 60, 90, and 120 minutes. As a result, it was confirmed that 60 minutes is the optimal condition. […] Afterward, in a biological process, the PET glycolysis product that had been produced under the above conditions was used as a substrate (Table 2). […]
To analyze a PET glycolysis product using betaine as a catalyst, high performance liquid chromatography (HPLC) analysis was performed. HPLC analysis conditions are as follows. As a column, a C18 column (OpitmaPak C18-51001546, 5 μm, 150 mm×4.6 mm) was used, and a column temperature was maintained at 25° C. during the analysis. Two mobile phases, A and B, were used, wherein A is 0.1% trifluoroacetic acid in distilled water, and B is methanol. During the analysis at a flow rate of 1 mL/min for 27 minutes, the proportion of the mobile phase B was maintained at 5% at 0 to 2 minutes, and the proportion of the mobile phase B was changed from 5 to 57% at 2 to 18 minutes. At 18 to 22 minutes, the proportion of the mobile phase B was changed from 57 to 5%. Finally, at 22 to 27 minutes, the proportion of the mobile phase B was maintained at 5%. Chromatography was performed at a wavelength of 254 nm using a UV/Vis detector.

[2] = pH of 50 mM sodium phosphate buffer after adding TPA; assay type: physicochemical; details: TPA 4 g/L in 50 mM sodium phosphate buffer (pH 8)
Description: Based on the defined enzyme input amounts, a hydrolase reaction was performed using the product of PET glycolysis, in which betaine was used, as a substrate. Accordingly, the efficient input amounts of the IsPETase^Mut and IsMHETase^Mut enzymes relative to substrates were to be confirmed without wasting the enzymes. The reaction conditions included a PET glycolysis product including 10 g/L of BHET as a substrate, 50 mM sodium phosphate buffer (pH 8), and a volume of 500 μL. After the reaction was performed at 40° C. for 6 hours, 30 min, 1 hr, 3 hr, and 6 hr, samples were diluted in methanol and centrifuged at 25,188 g for 10 minutes, and followed by analyzing the supernatant through high performance liquid chromatography (HPLC). As a result, in FIG. 6c, when the enzyme input amounts are 2.3 U/L and 4.5 U/L, compared to 9.0 U/L, it was confirmed that the amount of the product TPA is low. As the reaction progressed, it was expected that the pH was lowered and the enzyme activity was lost due to the influence of the product TPA. First, to confirm how low the pH is under the enzymatic hydrolysis reaction conditions due to the influence of TPA, TPA was added at a concentration of 0 to 10 g/L under the condition of 50 mM sodium phosphate buffer (pH 8). As a result, in FIG. 6d, the pHs of all samples were measured with a pH meter and visually confirmed with pH paper. […]

[3] = PET film; pH 7.0; 30 °C; 18 h; Yoshida et al.; cited from earlier work
[4] = PET/EG 1:3, catalyst/PET 0.5 wt %, 30 min
[5] = PET/EG 1:4, catalyst/PET 0.1 wt %, 30 min
[6] = PET/EG 1:4, catalyst/PET 0.5 wt %, 30 min
[7] = PET/EG 1:4, catalyst/PET 0.5 wt %, 60 min
[8] = PET/EG 1:4, catalyst/PET 0.5 wt %, 90 min
[9] = PET/EG 1:4, catalyst/PET 0.5 wt %, 120 min
[10] = PET/EG 1:4, catalyst/PET 1 wt %, 30 min
[11] = PET/EG 1:5, catalyst/PET 0.5 wt %, 30 min
[12] = PET/EG 1:6, catalyst/PET 0.5 wt %, 30 min
[13] = PET/EG 1:10, catalyst/PET 0.5 wt %, 30 min
[14] = PET/EG 1:20, catalyst/PET 0.5 wt %, 30 min

T2 sequence (A0A0K8P8E7 other isoform, or with tags, fused parts or gaps W397A): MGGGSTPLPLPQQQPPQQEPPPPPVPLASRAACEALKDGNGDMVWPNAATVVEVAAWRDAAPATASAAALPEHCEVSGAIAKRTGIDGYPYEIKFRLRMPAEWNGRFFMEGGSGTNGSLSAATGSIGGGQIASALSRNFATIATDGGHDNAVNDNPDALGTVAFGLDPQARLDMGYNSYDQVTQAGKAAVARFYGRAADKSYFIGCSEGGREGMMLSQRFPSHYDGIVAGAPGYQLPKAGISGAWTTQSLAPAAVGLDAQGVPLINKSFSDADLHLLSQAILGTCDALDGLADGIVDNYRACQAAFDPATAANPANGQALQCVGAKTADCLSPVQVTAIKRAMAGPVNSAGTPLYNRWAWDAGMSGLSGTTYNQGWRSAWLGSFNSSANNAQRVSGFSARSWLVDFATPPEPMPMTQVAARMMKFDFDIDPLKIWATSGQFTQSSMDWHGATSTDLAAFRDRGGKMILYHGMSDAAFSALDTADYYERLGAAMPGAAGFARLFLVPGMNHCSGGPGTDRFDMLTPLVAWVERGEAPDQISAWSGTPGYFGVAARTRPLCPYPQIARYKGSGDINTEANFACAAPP
T1 sequence (A0A0K8P6T7 other isoform, or with tags, fused parts or gaps S121E/D186H/R280A): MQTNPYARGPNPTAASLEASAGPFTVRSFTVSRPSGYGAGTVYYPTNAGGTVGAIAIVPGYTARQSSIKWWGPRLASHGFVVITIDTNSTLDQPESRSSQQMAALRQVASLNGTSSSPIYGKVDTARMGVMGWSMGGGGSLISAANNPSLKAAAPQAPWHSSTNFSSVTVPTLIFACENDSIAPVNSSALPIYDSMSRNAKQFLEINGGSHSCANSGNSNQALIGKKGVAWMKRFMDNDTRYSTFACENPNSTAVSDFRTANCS

C[N+](C)(C)CC(=O)O [betaine]
inhibitory effect on IsPETase^Mut enzyme reaction (IsPETase^Mut): no inhibitory effect
inhibitory effect on IsMHETase^Mut enzyme reaction (IsMHETase^Mut): no inhibitory effect
collective yield of BHET and MHET [1, 4]: 34.6%
titer of BHET [1, 4]: 256.8 g/L
titer of MHET [1, 4]: 24.9 g/L
collective yield of BHET and MHET [1, 5]: 26.6%
titer of BHET [1, 5]: 185.3 g/L
collective yield of BHET and MHET [1, 6]: 52.3%
titer of BHET [1, 6]: 330.6 g/L
titer of MHET [1, 6]: 27.6 g/L
collective yield of BHET and MHET [1, 7]: 58.7%
titer of BHET [1, 7]: 368.6 g/L
titer of MHET [1, 7]: 32.8 g/L
collective yield of BHET and MHET [1, 8]: 55.1%
titer of BHET [1, 8]: 341.2 g/L
titer of MHET [1, 8]: 35.1 g/L
collective yield of BHET and MHET [1, 9]: 53.8%
titer of BHET [1, 9]: 313.8 g/L
titer of MHET [1, 9]: 50.4 g/L
collective yield of BHET and MHET [1, 10]: 42.4%
titer of BHET [1, 10]: 286.9 g/L
titer of MHET [1, 10]: 6.8 g/L
collective yield of BHET and MHET [1, 11]: 52.7%
titer of BHET [1, 11]: 307.6 g/L
titer of MHET [1, 11]: 21.6 g/L
collective yield of BHET and MHET [1, 12]: 51.6%
titer of BHET [1, 12]: 268.3 g/L
titer of MHET [1, 12]: 19.1 g/L
collective yield of BHET and MHET [1, 13]: 49.8%
titer of BHET [1, 13]: 189.8 g/L
titer of MHET [1, 13]: 6.7 g/L
collective yield of BHET and MHET [1, 14]: 37.2%
titer of BHET [1, 14]: 81.3 g/L
titer of MHET [1, 14]: 2.9 g/L

C1CN=C2NCCCN2C1 [TBD, 1,5,7-triazabicyclo[4.4.0]dec-5-ene, reference compound]
collective yield of BHET and MHET [1, 7]: 55.1%
titer of BHET [1, 7]: 328.4 g/L
titer of MHET [1, 7]: 45.9 g/L

O=C(O)c1ccc(C(=O)O)cc1 [TPA, terephthalic acid]
pH [2]: 5.47

B1: /sPETase^Wild: wild-type PETase of I. sakaiensis, SEQ ID NO: 3 (protein)
chain: HMQTNPYARGPNPTAASLEASAGPFTVRSFTVSRPSGYGAGTVYYPTNAGGTVGAIAIVPGYTARQSSIKWWGPRLASHGFVVITIDTNSTLDQPSSRSSQQMAALRQVASLNGTSSSPIYGKVDTARMGVMGWSMGGGGSLISAANNPSLKAAAPQAPWDSSTNFSSVTVPTLIFACENDSIAPVNSSALPIYDSMSRNAKQFLEINGGSHSCANSGNSNQALIGKKGVAWMKRFMDNDTRYSTFACENPNSTRVSDFRTANCSLE
modifications: IsMHETase_wt
sum of TPA, MHET and BHET [3]: (0.3 mM
